Reference: PubChem BioAssay AID1053147 (Broad Institute, 2014)

System: HepG2 BODIPY-LDL uptake, imaging, fold induction
Assay: LDL uptake enhancers in HepG2, dose response, imaging, BODIPY-LDL, cherry-pick, set 2 (AID 1053147)
Conditions: active compounds read high

## CN1C(=O)c2cc(NC(=O)c3ccc(C(F)(F)F)cc3)ccc2OC[C@@H]2O[C@H](CC(=O)NC3Cc4ccccc4C3)CC[C@@H]21
  fold induction x10: 10

## CN1C(=O)c2cc(NC(=O)c3ccc(C(F)(F)F)cc3)ccc2OC[C@@H]2O[C@@H](CC(=O)NC3Cc4ccccc4C3)CC[C@@H]21
  fold induction x10: 25
